{"source": "patent US20090041835A1", "about": "“METHOD OF INHIBITING LEAKAGE OF DRUG ENCAPSULATED IN LIPOSOMES” (KYOWA HAKKO KOGYO CO., LTD., priority 1999, published 2009)", "origin": "cited, not measured here", "conditions": "LUVs of 190 nm average particle size, pH gradient using ammonium sulfate; 50% mouse serum at 37° C."}
{"smiles": "O=C(O)c1cn(C2CC2)c2cc(N3CCNCC3)c(F)cc2c1=O", "note": "[ciprofloxacin]", "values": [{"measurement": "leakage of drug out of the LUVs", "value": "rapidly leaked out"}]}
